Experimental findings from patent publication US11325899B2, “Benzofurane and benzothiophene derivatives as PGE2 receptor modulators” (IDORSIA PHARMACEUTICALS LTD, priority 2017, dated 2022) are described below.

In one experiment the target is T1, PTGER4 (EP4) (Homo sapiens, UniProt P35408).
T1 construct: host or cells: HEK 293 (PathHunter PTGER4 b-arrestin cell line)
Put plainly: hEP4 b-arrestin assay (PathHunter HEK 293 PTGER4 b-arrestin cells). As to conditions: antagonistic activity, beta-arrestin assay; read-out: hEP4 b-arr IC50. In kind it is cell-based. Here is the method:
(§1) The antagonistic activities of the compounds of formula (I) on the EP2 and EP4 receptors are determined in accordance with the following experimental method.
(§2) The assay is using the PathHunter™ HEK 293 PTGER2 and PTGER4 b-arrestin cell lines from DiscoverX. The system is based on the Enzyme Fragment Complementation Technology. Two complementing fragments of the b-galactosidase enzyme are expressed within stably transfected cells. The larger portion of b-gal, termed EA for Enzyme Acceptor, is fused to the C-terminus of b-arrestin 2. The smaller fragment, termed ProLink™ tag, is fused to PTGER2 (EP2) or PTRGER4 (EP4) at the C-terminus. Upon activation, b-arrestin is recruited which forces the interaction of ProLink and EA, allowing complementation of the two fragments of b-gal and the formation of a functional enzyme which is capable of hydrolysing the substrate and generating a chemiluminescent signal.
The HEK 293 PTGER4 b-arrestin cells (DiscoverX 93-030-4C1) are detached from culture dishes with a cell dissociation buffer (Invitrogen, 13151-014), and collected in growing medium (GM: DMEM+Glutamax-I (Invitrogen 32430)/10% FCS, 1% Penicilin/streptomycin). 5000 cells per well of a 384 well plate (white with white bottom Greiner 781080) are seeded in 20 ul per well of GM. Plate is incubated at 37° C., 5% C02 for 24 hours.
(§3) Stock solutions of test compounds are made at a concentration of 10 mM in DMSO, and serially diluted in DMSO to concentrations required for inhibition dose response curves (tested concentration range 10 μM-2 nM or 1 μM-0.2 nM).
PGE2 (Cayman 14010, stock solution: 100 uM in DMSO) is used as agonist at 20 nM final concentration, corresponding to EC80.
Five microliters of diluted compounds are transferred into the assay plate. Plate is pre-incubated 15 minutes at 37° C. Then five microliters of PGE2 (final conc. 20 nM) are transferred into the assay plate. Plate is incubated 120 minutes at 37° C.
(§4) PathHunter Glo Detection Kit components are thawed and mix according to manufacturer's instructions: 1 part Galacton Star Substrate with 5 parts Emerald II™ Solution, and 19 parts of PathHunter Cell Assay Buffer, respectively. Twelve μl of reagent are transferred to the assay plate and incubate for 1 hour at room temperature in the dark. Luminescence counts are read on a BMG Fluostar Optima reader according to manufacturer's instructions.
(§5) For each compound concentration calculate of the percentage of activity compared to DMSO control value as average±STDEV. (each concentration is measured in duplicate)
(§6) IC50 values and curves are generated with XLfit software (IDBS) using Dose-Response One Site model 203. When compounds were measured multiple times, mean values are given.

A further experiment concerns the target T2, PTGER2 (EP2) (Homo sapiens, UniProt P43116).
T2 construct: host or cells: HEK 293 (PathHunter PTGER2 b-arrestin cell line)
Put plainly: hEP2 b-arrestin assay (PathHunter HEK 293 PTGER2 b-arrestin cells). It counts as cell-based. As to conditions: antagonistic activity, beta-arrestin assay; read-out: hEP2 b-arr IC50. Here is the method: as §1, §2
The HEK 293 PTGER2 b-arrestin cells (DiscoverX 93-021-4C1) are detached from culture dishes with a cell dissociation buffer (Invitrogen, 13151-014), and collected in growing medium (GM: DMEM+Glutamax-I (Invitrogen 32430)/10% FCS, 1% Penicilin/streptomycin). 5000 cells per well of a 384 well plate (white with white bottom Greiner 781080) are seeded in 20 ul per well of GM. Plate is incubated at 37° C., 5% C02 for 24 hours.
as §3
PGE2 (Cayman 14010, stock solution: 10 mM in DMSO) is used as agonist at 5 μM final concentration, corresponding to EC80.
Five microliters of diluted compounds are transferred into the assay plate. Plate is pre-incubated 15 minutes at 37° C. Then five microliters of PGE2 (final conc. 5 μM) are transferred into the assay plate. Plate is incubated 120 minutes at 37° C.
as §4, §5, §6

pIC50: −log10 of the molar value.

T2 sequence (P43116 whole entry): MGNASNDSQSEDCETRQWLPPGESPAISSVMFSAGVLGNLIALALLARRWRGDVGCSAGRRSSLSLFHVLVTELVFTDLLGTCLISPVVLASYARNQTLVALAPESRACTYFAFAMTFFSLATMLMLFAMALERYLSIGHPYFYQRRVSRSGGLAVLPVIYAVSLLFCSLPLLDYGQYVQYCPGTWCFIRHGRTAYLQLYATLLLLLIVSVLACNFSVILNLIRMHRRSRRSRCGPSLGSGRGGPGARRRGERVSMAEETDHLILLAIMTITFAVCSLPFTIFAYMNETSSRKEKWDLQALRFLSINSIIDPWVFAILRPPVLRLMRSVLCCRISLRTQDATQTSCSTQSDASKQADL
T1 sequence (P35408 whole entry): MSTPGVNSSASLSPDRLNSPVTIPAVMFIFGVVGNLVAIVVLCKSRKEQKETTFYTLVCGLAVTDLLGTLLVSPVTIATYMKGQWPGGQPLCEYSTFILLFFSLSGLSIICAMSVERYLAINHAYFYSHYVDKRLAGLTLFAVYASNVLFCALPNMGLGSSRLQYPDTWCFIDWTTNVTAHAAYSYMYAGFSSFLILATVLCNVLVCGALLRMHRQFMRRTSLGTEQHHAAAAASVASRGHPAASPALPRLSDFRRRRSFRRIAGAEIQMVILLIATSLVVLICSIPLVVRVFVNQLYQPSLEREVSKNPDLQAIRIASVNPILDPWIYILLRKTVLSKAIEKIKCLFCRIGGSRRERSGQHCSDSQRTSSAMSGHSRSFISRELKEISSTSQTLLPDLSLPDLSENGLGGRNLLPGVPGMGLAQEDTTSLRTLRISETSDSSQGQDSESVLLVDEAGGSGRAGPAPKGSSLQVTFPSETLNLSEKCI

Consider `CSc1cc(-c2cc(NCCc3c(C#N)sc4ccccc34)ncn2)ccc1C(=O)O` [Example 173, 4-{6-[2-(2-Cyano-benzo[b]thiophen-3-yl)-ethylamino]-pyrimidin-4-yl}-2-methylsulfanyl-benzoic acid], for which the pIC50 – broadly, the negative decadic logarithm of the IC50, by convention in mol/L – was 6.12 on PTGER4 (EP4) and 8.10 at PTGER2 (EP2).
With `COc1cc(-c2cc(NCCc3c(C#N)sc4ccccc34)ncn2)ccc1CC(=O)O` [Example 174, (4-{6-[2-(2-Cyano-benzo[b]thiophen-3-yl)-ethylamino]-pyrimidin-4-yl}-2-methoxy-phenyl)-acetic acid], the values for the pIC50 on PTGER4 (EP4) and at PTGER2 (EP2) were 6.14 and 6.87, respectively.
Taken in the same sequence, the figures for `Cc1sc2c(C)cc(F)cc2c1CCNc1cc(-c2ccc(-c3noc(=O)[nH]3)cc2)ncn1` [Example 177, 3-(4-{6-[2-(5-Fluoro-2,7-dimethyl-benzo[b]thiophen-3-yl)-ethylamino]-pyrimidin-4-yl}-phenyl)-[1,2,4]oxadiazol-5(4H)-one [tautomeric form: 3-(4-{6-[2-(5-Fluoro-2,7-dimethyl-benzo[b]thiophen-3-yl)-ethylamino]-pyrimidin-4-yl}-phenyl)-[1,2,4]oxadiazol-5-ol]] were 6.67 and 7.33.
For `Cc1sc2c(C)cc(F)cc2c1CCNc1cc(-c2ccc(C(N)=O)cc2)ncn1` [Example 178, 4-{6-[2-(5-Fluoro-2,7-dimethyl-benzo[b]thiophen-3-yl)-ethylamino]-pyrimidin-4-yl}-benzamide] the same measures were 6.48 and 7.32.
For `CCSc1cc(-c2cc(NCCc3c(C)sc4c(C)cc(F)cc34)ncn2)ccc1C(=O)O` [Example 179, 2-Ethylsulfanyl-4-{6-[2-(5-fluoro-2,7-dimethyl-benzo[b]thiophen-3-yl)-ethylamino]-pyrimidin-4-yl}-benzoic acid] the same measures were 6.74 and 8.10.
With `Cc1sc2c(C)cc(F)cc2c1CCNc1cc(-c2ccc(-c3c(O)c(=O)c3=O)cc2)ncn1` [Example 180, 3-(4-{6-[2-(5-Fluoro-2,7-dimethyl-benzo[b]thiophen-3-yl)-ethylamino]-pyrimidin-4-yl}-phenyl)-4-hydroxy-cyclobut-3-ene-1,2-dione], the pIC50 at PTGER4 (EP4) is 6.92; on PTGER2 (EP2) it was 7.70.
Turning to `CCc1cc(-c2cc(NCCc3c(C)sc4c(C)cc(F)cc34)ncn2)ccc1C(=O)OC` [Example 181, 2-Ethyl-4-{6-[2-(5-fluoro-2,7-dimethyl-benzo[b]thiophen-3-yl)-ethylamino]-pyrimidin-4-yl}-benzoic acid methyl ester], the pIC50 was 6.37 at PTGER4 (EP4) and 6.90 at PTGER2 (EP2).
Taken in the same sequence, the figures for `Cc1sc2c(C)cc(F)cc2c1CCNc1cc(-c2ccc3[nH]ccc3c2)ncn1` [Example 183, [2-(5-Fluoro-2,7-dimethyl-benzo[b]thiophen-3-yl)-ethyl]-[6-(1H-indol-5-yl)-pyrimidin-4-yl]-amine] were 6.68 and 7.40.
`CCc1cc(-c2cc(NCCc3c(C)sc4c(C)cc(F)cc34)ncn2)ccc1CC(=O)O` [Example 185, (2-Ethyl-4-{6-[2-(5-fluoro-2,7-dimethyl-benzo[b]thiophen-3-yl)-ethylamino]-pyrimidin-4-yl}-phenyl)-acetic acid]: the values for the pIC50 on PTGER4 (EP4) and at PTGER2 (EP2) were 6.87 and 7.30, respectively.
For `Cc1sc2c(C)cc(F)cc2c1CCNc1cc(-c2ccc(CC(=O)O)c(OC(F)(F)F)c2)ncn1` [Example 187, (4-{6-[2-(5-Fluoro-2,7-dimethyl-benzo[b]thiophen-3-yl)-ethylamino]-pyrimidin-4-yl}-2-trifluoromethoxy-phenyl)-acetic acid] the same measures were 6.37 and 7.10.
Turning to `Cc1sc2c(C)cc(F)cc2c1CCNc1cc(-c2ccc(NC=O)cc2)ncn1` [Example 188, N-(4-{6-[2-(5-Fluoro-2,7-dimethyl-benzo[b]thiophen-3-yl)-ethylamino]-pyrimidin-4-yl}-phenyl)-formamide], the results for the pIC50 at PTGER4 (EP4) and on PTGER2 (EP2) were 6.16 and 7.01, respectively.
With `CCOc1cc(-c2cc(NCCc3c(C)sc4c(C)cc(F)cc34)ncn2)ccc1NC=O` [Example 191, N-(2-Ethoxy-4-{6-[2-(5-fluoro-2,7-dimethyl-benzo[b]thiophen-3-yl)-ethylamino]-pyrimidin-4-yl}-phenyl)-formamide], the negative logarithm of the IC50 (pIC50) on PTGER4 (EP4) was 6.87; at PTGER2 (EP2), 7.35.
For the compound `Cc1sc2c(C)cc(F)cc2c1CCNc1cc(-c2ccc(CC(=O)O)c(OC(C)C)c2)ncn1` [Example 192, (4-{6-[2-(5-Fluoro-2,7-dimethyl-benzo[b]thiophen-3-yl)-ethylamino]-pyrimidin-4-yl}-2-isopropoxy-phenyl)-acetic acid], the results for the pIC50 on PTGER4 (EP4) and on PTGER2 (EP2) were 6.58 and 7.14, respectively.
Taken in the same sequence, the figures for `CCc1cc(-c2cc(NCCc3c(C)sc4c(C)cc(F)cc34)ncn2)ccc1C(=O)O` [Example 193, 2-Ethyl-4-{6-[2-(5-fluoro-2,7-dimethyl-benzo[b]thiophen-3-yl)-ethylamino]-pyrimidin-4-yl}-benzoic acid] were 6.18 and 7.74.
For `CCc1cc(-c2cc(NCCc3c(C)sc4c(C)cc(F)cc34)ncn2)sc1CC(=O)O` [Example 197, (3-Ethyl-5-{6-[2-(5-fluoro-2,7-dimethyl-benzo[b]thiophen-3-yl)-ethylamino]-pyrimidin-4-yl}-thiophen-2-yl)-acetic acid] the same measures were 6.84 and 7.07.
Taken in the same sequence, the figures for `Cc1cc(-c2cc(NCCc3c(C)sc4c(C)cc(F)cc34)ncn2)cc(Cl)c1CC(=O)O` [Example 198, (2-Chloro-4-{6-[2-(5-fluoro-2,7-dimethyl-benzo[b]thiophen-3-yl)-ethylamino]-pyrimidin-4-yl}-6-methyl-phenyl)-acetic acid] were 6.76 and 7.11.
Take `CCOc1cc(-c2cc(NCCc3c(C)sc4c(C)cc(F)cc34)ncn2)[nH]c1C(=O)O` [Example 199, 3-Ethoxy-5-{6-[2-(5-fluoro-2,7-dimethyl-benzo[b]thiophen-3-yl)-ethylamino]-pyrimidin-4-yl}-1 H-pyrrole-2-carboxylic acid]: the negative-log IC50 (pIC50) is 6.44 at PTGER4 (EP4) and 8.30 at PTGER2 (EP2).
For `CCn1cc(-c2cc(NCCc3c(C)sc4c(C)cc(F)cc34)ncn2)cc1C(=O)O` [Example 200, 1-Ethyl-4-{6-[2-(5-fluoro-2,7-dimethyl-benzo[b]thiophen-3-yl)-ethylamino]-pyrimidin-4-yl}-1H-pyrrole-2-carboxylic acid] the same measures were 6.26 and 7.20.
For `CCCn1cc(-c2cc(NCCc3c(C)sc4c(C)cc(F)cc34)ncn2)cc1C(=O)O` [Example 201, 4-{6-[2-(5-Fluoro-2,7-dimethyl-benzo[b]thiophen-3-yl)-ethylamino]-pyrimidin-4-yl}-1-propyl-1H-pyrrole-2-carboxylic acid] the same measures were 6.45 and 7.47.
Taken in the same sequence, the figures for `COc1cc(-c2cc(NCCc3c(C)sc4c(C)cc(F)cc34)ncn2)ccc1-c1cc(O)no1` [Example 203, 5-(4-{6-[2-(5-Fluoro-2,7-dimethyl-benzo[b]thiophen-3-yl)-ethylamino]-pyrimidin-4-yl}-2-methoxy-phenyl)-isoxazol-3-ol [tautomeric form: 5-(4-(6-((2-(5-fluoro-2,7-dimethylbenzo[b]thiophen-3-yl)ethyl)amino)pyrimidin-4-yl)-2-methoxyphenyl)isoxazol-3(2H)-one]] were 6.62 and 7.80.
